Test results published in patent US12377104B1, “Methods for treating a fatty liver disease” (Madrigal Pharmaceuticals, Inc., priority 2024, dated 2025).

Experiment: Resmetirom exposure parameters by dose, quartile and body weight
Format: in vivo, human
Procedure: Various body weight cutoffs for dosing were evaluated.

Which “Cmin,ss Geometric Mean” value (80 mg, 80-<90 kg) does the source give for `CC(C)c1cc(Oc2c(Cl)cc(-n3nc(C#N)c(=O)[nH]c3=O)cc2Cl)n[nH]c1=O` [Resmetirom, 2-(3,5-dichloro-4-((5-isopropyl-6-oxo-1,6-dihydropyridazin-3-yl)oxy)phenyl)-3,5-dioxo-2,3,4,5-tetrahydro-1,2,4-triazine-6-carbonitrile] here?
The value was 20.7 ng/mL.

And the “Cmin,ss Mean” value (80 mg, 80-<90 kg)?
Its value is 55.9 ng/mL.

And the “Cmin,ss Median” value (80 mg, 80-<90 kg)?
Its value is 18.4 ng/mL.

And the “t1/2α Geometric Mean” value (80 mg, 80-<90 kg)?
Its value is 1.21 h.

And the “t1/2α Mean” value (80 mg, 80-<90 kg)?
The value was 1.34 h.

And the “t1/2α Median” value (80 mg, 80-<90 kg)?
The value was 1.24 h.

What about the “t1/2β Geometric Mean” value (80 mg, 80-<90 kg) of the same molecule?
The value was 5.15 h.

And the “t1/2β Mean” value (80 mg, 80-<90 kg)?
Its value is 6.04 h.

And the “t1/2β Median” value (80 mg, 80-<90 kg)?
Its value is 4.41 h.

What about the “Cmin,ss Geometric Mean” value (80 mg, 90-<100 kg) of the same molecule?
Its value is 14.2 ng/mL.

And the “Cmin,ss Mean” value (80 mg, 90-<100 kg)?
Its value is 52.0 ng/mL.

What about the “Cmin,ss Median” value (80 mg, 90-<100 kg) of the same molecule?
The value was 12.0 ng/mL.

And the “t1/2α Geometric Mean” value (80 mg, 90-<100 kg)?
Its value is 1.10 h.

What about the “t1/2α Mean” value (80 mg, 90-<100 kg) of the same molecule?
Its value is 1.21 h.

What about the “t1/2α Median” value (80 mg, 90-<100 kg) of the same molecule?
Its value is 1.02 h.

What about the “t1/2β Geometric Mean” value (80 mg, 90-<100 kg) of the same molecule?
The value was 4.81 h.

What about the “t1/2β Mean” value (80 mg, 90-<100 kg) of the same molecule?
Its value is 5.50 h.

What about the “t1/2β Median” value (80 mg, 90-<100 kg) of the same molecule?
Its value is 4.29 h.

What about the “Cmin,ss Geometric Mean” value (80 mg, 100-<110 kg) of the same molecule?
The value was 13.2 ng/mL.

And the “Cmin,ss Mean” value (80 mg, 100-<110 kg)?
The value was 37.3 ng/mL.

And the “Cmin,ss Median” value (80 mg, 100-<110 kg)?
Its value is 14.1 ng/mL.

What about the “t1/2α Geometric Mean” value (80 mg, 100-<110 kg) of the same molecule?
Its value is 1.12 h.

What about the “t1/2α Mean” value (80 mg, 100-<110 kg) of the same molecule?
The value was 1.26 h.

What about the “t1/2α Median” value (80 mg, 100-<110 kg) of the same molecule?
Its value is 1.12 h.

And the “t1/2β Geometric Mean” value (80 mg, 100-<110 kg)?
The value was 4.99 h.

And the “t1/2β Mean” value (80 mg, 100-<110 kg)?
Its value is 5.86 h.

What about the “t1/2β Median” value (80 mg, 100-<110 kg) of the same molecule?
The value was 4.50 h.

What about the “Cmin,ss Geometric Mean” value (80 mg, <80 kg) of the same molecule?
The value was 26.7 ng/mL.

And the “Cmin,ss Mean” value (80 mg, <80 kg)?
Its value is 72.8 ng/mL.

And the “Cmin,ss Median” value (80 mg, <80 kg)?
The value was 25.5 ng/mL.

And the “t1/2α Geometric Mean” value (80 mg, <80 kg)?
Its value is 1.13 h.

And the “t1/2α Mean” value (80 mg, <80 kg)?
Its value is 1.27 h.

And the “t1/2α Median” value (80 mg, <80 kg)?
The value was 1.15 h.

And the “t1/2β Geometric Mean” value (80 mg, <80 kg)?
Its value is 5.03 h.

What about the “t1/2β Mean” value (80 mg, <80 kg) of the same molecule?
Its value is 5.44 h.

And the “t1/2β Median” value (80 mg, <80 kg)?
Its value is 4.53 h.

What about the “Percentage of Cave,ss in quartile” value (80 mg; Q1: [20-155) ng/mL) of the same molecule?
Its value is 31%.

And the “Percentage of Cave,ss in quartile” value (80 mg; Q2: [155-219) ng/mL)?
The value was 31%.

What about the “Percentage of Cave,ss in quartile” value (80 mg; Q3: [219-321) ng/mL) of the same molecule?
Its value is 22%.

What about the “Percentage of Cave,ss in quartile” value (80 mg, Q4: [321-1326] ng/mL) of the same molecule?
Its value is 17%.

What about the “Cmin,ss Geometric Mean” value (80 mg, ≥110 kg) of the same molecule?
The value was 11.5 ng/mL.

What about the “Cmin,ss Mean” value (80 mg, ≥110 kg) of the same molecule?
The value was 26.0 ng/mL.

And the “Cmin,ss Median” value (80 mg, ≥110 kg)?
Its value is 9.77 ng/mL.

What about the “t1/2α Geometric Mean” value (80 mg, ≥110 kg) of the same molecule?
Its value is 1.16 h.

What about the “t1/2α Mean” value (80 mg, ≥110 kg) of the same molecule?
The value was 1.30 h.

And the “t1/2α Median” value (80 mg, ≥110 kg)?
The value was 1.11 h.

And the “t1/2β Geometric Mean” value (80 mg, ≥110 kg)?
Its value is 4.94 h.

And the “t1/2β Mean” value (80 mg, ≥110 kg)?
The value was 5.30 h.

What about the “t1/2β Median” value (80 mg, ≥110 kg) of the same molecule?
Its value is 4.45 h.

What about the “Cmin,ss Geometric Mean” value (100 mg, 80-<90 kg) of the same molecule?
Its value is 32.0 ng/mL.

And the “Cmin,ss Mean” value (100 mg, 80-<90 kg)?
Its value is 100 ng/mL.

And the “Cmin,ss Median” value (100 mg, 80-<90 kg)?
Its value is 22.2 ng/mL.

And the “t1/2α Geometric Mean” value (100 mg, 80-<90 kg)?
Its value is 1.16 h.

And the “t1/2α Mean” value (100 mg, 80-<90 kg)?
The value was 1.30 h.

What about the “t1/2α Median” value (100 mg, 80-<90 kg) of the same molecule?
The value was 1.08 h.

And the “t1/2β Geometric Mean” value (100 mg, 80-<90 kg)?
Its value is 5.58 h.

What about the “t1/2β Mean” value (100 mg, 80-<90 kg) of the same molecule?
Its value is 7.13 h.

And the “t1/2β Median” value (100 mg, 80-<90 kg)?
Its value is 4.43 h.

What about the “Cmin,ss Geometric Mean” value (100 mg, 90-<100 kg) of the same molecule?
Its value is 41.7 ng/mL.

What about the “Cmin,ss Mean” value (100 mg, 90-<100 kg) of the same molecule?
The value was 113 ng/mL.

And the “Cmin,ss Median” value (100 mg, 90-<100 kg)?
Its value is 51.0 ng/mL.

And the “t1/2α Geometric Mean” value (100 mg, 90-<100 kg)?
The value was 1.39 h.

What about the “t1/2α Mean” value (100 mg, 90-<100 kg) of the same molecule?
The value was 1.54 h.

What about the “t1/2α Median” value (100 mg, 90-<100 kg) of the same molecule?
The value was 1.37 h.

What about the “t1/2β Geometric Mean” value (100 mg, 90-<100 kg) of the same molecule?
The value was 6.21 h.

And the “t1/2β Mean” value (100 mg, 90-<100 kg)?
The value was 8.49 h.

And the “t1/2β Median” value (100 mg, 90-<100 kg)?
Its value is 5.29 h.

What about the “Cmin,ss Geometric Mean” value (100 mg, 100-<110 kg) of the same molecule?
The value was 26.5 ng/mL.

And the “Cmin,ss Mean” value (100 mg, 100-<110 kg)?
The value was 65.4 ng/mL.

What about the “Cmin,ss Median” value (100 mg, 100-<110 kg) of the same molecule?
Its value is 22.1 ng/mL.

What about the “t1/2α Geometric Mean” value (100 mg, 100-<110 kg) of the same molecule?
The value was 1.14 h.

And the “t1/2α Mean” value (100 mg, 100-<110 kg)?
The value was 1.30 h.

What about the “t1/2α Median” value (100 mg, 100-<110 kg) of the same molecule?
Its value is 1.34 h.

What about the “t1/2β Geometric Mean” value (100 mg, 100-<110 kg) of the same molecule?
The value was 5.55 h.

And the “t1/2β Mean” value (100 mg, 100-<110 kg)?
Its value is 7.08 h.

And the “t1/2β Median” value (100 mg, 100-<110 kg)?
Its value is 4.65 h.

What about the “Cmin,ss Geometric Mean” value (100 mg, <80 kg) of the same molecule?
Its value is 31.4 ng/mL.

And the “Cmin,ss Mean” value (100 mg, <80 kg)?
The value was 119 ng/mL.

What about the “Cmin,ss Median” value (100 mg, <80 kg) of the same molecule?
The value was 29.7 ng/mL.
